Measurements taken from patent US12630563B2, “Macrocyclic RIP2-kinase inhibitors” (Oncodesign S.A., priority 2020, dated 2026).

Molecular target: T1, recombinant hRIPK2 protein (kinase domain aa 1-299-His-tagged) (Homo sapiens, UniProt O43353)
T1 construct: kinase domain aa 1-299-His-tagged; purchased Life Technologies PR7829A
Assay: RIPK2 AlphaLISA assay (displacement of bead-bound CZC-8004 from hRIPK2)
Format: binding
Conditions: recombinant hRIPK2 kinase domain 10 nM, 2 h at 23° C.
Source text: RIPK2 AlphaLISA® Assay (Amplified Luminescent Proximity Homogeneous Assay)
A non-specific kinase inhibitor (CZC-8004 Cayman #916603-07-1) bound to an acceptor bead (#6772001 PerkinElmer) was mixed to the recombinant hRIPK2 protein (kinase domain aa 1-299-His-tagged—Life Technologies PR7829A) and a Ni2+-tagged donor beads (#AS101D PerkinElmer). In the presence of an inhibitor, the compound beads displacement from hRIPK2 was followed by signal loss. In a 384-well ProxiPlate@ (Perkin Elmer, 6008280) add:
2 μL RIPK2 inhibitor (in DMSO 0.8%).
2 μL human recombinant RIPK2 (10 nM diluted in AlphaLISA buffer 1×).
4 μL Mix of […] 1/1000 in AlphaLISA buffer 1×.
Homogenize using a microtiter plate shaker and incubate for 2 h at 23° C.
Read using EnVision®-Alpha Reader (PerkinElmer) according to manufacturer specifications.

T1 sequence (O43353 1-299): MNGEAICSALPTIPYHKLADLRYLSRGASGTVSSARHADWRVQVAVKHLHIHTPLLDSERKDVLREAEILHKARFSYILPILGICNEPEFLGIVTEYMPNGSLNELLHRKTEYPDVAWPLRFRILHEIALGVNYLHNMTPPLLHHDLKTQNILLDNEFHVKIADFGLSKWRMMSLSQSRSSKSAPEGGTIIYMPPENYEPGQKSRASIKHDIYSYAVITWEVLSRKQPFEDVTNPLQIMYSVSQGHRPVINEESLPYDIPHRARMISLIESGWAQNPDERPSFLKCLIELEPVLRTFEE

| IC50 [µM] | Compound |
| --- | --- |
| < 0.01 | O=C1[C@H](OCC2CC2)C[C@H]2COc3ccn4ncc(c4n3)-c3cc(F)cc(c3)NCCN12 [Example 11, (12R,14S)-12-(cyclopropylmethoxy)-4-fluoro-16-oxa-7,10,20,21,24-pentaazapentacyclo[15.5.2.1^2,6.0^10,^14.0^20,^23]pentacosa-1(23),2(25),3,5,17(24),18,21-heptaen-11-one] |
| < 0.01 | CO[C@@H]1C[C@H]2COc3ccn4ncc(c4n3)-c3cc(C#N)cc(c3)NCCN2C1=O [Example 12, (12R,14S)-12-methoxy-11-oxo-16-oxa-7,10,20,21,24-pentaazapentacyclo[15.5.2.1^2,6.0^10,^14.0^20,23]pentacosa-1(23),2,4,6(25),17(24),18,21-heptaene-4-carbonitrile] |
| < 0.01 | CO[C@@H]1C[C@H]2COc3ccn4ncc(c4n3)-c3cc(cc(OC(F)F)c3)NCCN2C1=O [Example 13, (12R,14S)-4-(difluoromethoxy)-12-methoxy-16-oxa-7,10,20,21,24-pentaazapentacyclo[15.5.2.1^2,6.0^10,^14.0^20,^23]pentacosa-1(23),2,4,6(25),17(24),18,21-heptaen-11-one] |
| 0.01 to 0.1 | CO[C@@H]1C[C@H]2COc3ccn4ncc(c4n3)-c3cc(cc(OCc4ccccc4)c3)NCCN2C1=O [Example 14, (12R, 14S)-4-(benzyloxy)-12-methoxy-16-oxa-7,10,20,21,24-pentaazapentacyclo[15.5.2.1^2,6.0^10,14.0^20,^23]pentacosa-1(23),2,4,6(25),17(24),18,21-heptaen-11-one] |
| 0.01 to 0.1 | CO[C@@H]1C[C@H]2COc3ccn4ncc(c4n3)-c3cc(cc(F)c3F)NCCN2C1=O [Example 15, (12R,14S)-3,4-difluoro-12-methoxy-16-oxa-7,10,20,21,24-pentaazapentacyclo[15.5.2.1^2,6.0^10,^14.0^20,^23]pentacosa-1(23),2,4,6(25),17(24),18,21-heptaen-11-one] |
| < 0.01 | COc1cc2cc(c1)-c1cnn3ccc(nc13)OC[C@@H]1C[C@@H](OC(C)C)C(=O)N1CCN2 [Example 16, (12R,14S)-4-methoxy-12-(propan-2-yloxy)-16-oxa-7,10,20,21,24-pentaazapentacyclo[15.5.2.1^2,6.0^10,^14.0^20,^23]pentacosa-1(23),2,4,6(25),17(24),18,21-heptaen-11-one] |
| < 0.01 | CCO[C@@H]1C[C@H]2COc3ccn4ncc(c4n3)-c3cc(F)cc(c3)NCCN2C1=O [Example 17, (12R,14S)-12-ethoxy-4-fluoro-16-oxa-7,10,20,21,24-pentaazapentacyclo[15.5.2.1^2,6.0^10,^14.0^20,^23]pentacosa-1(23),2,4,6(25),17(24),18,21-heptaen-11-one] |
| < 0.01 | CCO[C@@H]1C[C@H]2COc3nc4c(cnn4cc3C)-c3cc(F)cc(c3)NCCN2C1=O [Example 18, (12R,14S)-12-ethoxy-4-fluoro-18-methyl-16-oxa-7,10,20,21,24-pentaazapentacyclo[15.5.2.1^2,6.0^10,^14.0^20,^23]pentacosa-1(23),2,4,6(25),17(24),18,21-heptaen-11-one] |
| < 0.01 | COc1cc2cc(c1)-c1cnn3cc(C)c(nc13)OC[C@@H]1C[C@@H](OC)C(=O)N1CCN2 [Example 19, (12R,14S)-4,12-dimethoxy-18-methyl-16-oxa-7,10,20,21,24-pentaazapentacyclo[15.5.2.1^2,6.0^10,^14.0^20,^23]pentacosa-1(23),2(25),3,5,17(24),18,21-heptaen-11-one] |
| < 0.01 | CCO[C@@H]1C[C@H]2COc3ccn4ncc(c4n3)-c3cc(Cl)cc(c3)NCCN2C1=O [Example 20, (12R,14S)-4-chloro-12-ethoxy-16-oxa-7,10,20,21,24-pentaazapentacyclo[15.5.2.1^2,6.0^10,^14.0^20,^23]pentacosa-1(23),2,4,6(25),17(24),18,21-heptaen-11-one] |
| 0.01 to 0.1 | CCc1cc2cc(c1)-c1cnn3ccc(nc13)OC[C@@H]1C[C@@H](OC)C(=O)N1CCN2 [Example 21, (12R,14S)-4-ethyl-12-methoxy-16-oxa-7,10,20,21,24-pentaazapentacyclo[15.5.2.1^2,6.0^10,^14.0^20,^23]pentacosa-1(23),2,4,6(25),17(24),18,21-heptaen-11-one] |
| < 0.01 | COc1cc2cc(c1)-c1cnn3ccc(nc13)OC[C@@H]1C[C@@H](OCC3CC3)C(=O)N1CCN2 [Example 22, (12R,14S)-12-(cyclopropylmethoxy)-4-methoxy-16-oxa-7,10,20,21,24-pentaazapentacyclo[15.5.2.1^2,6.0^10,^14.0^20,^23]pentacosa-1(23),2(25),3,5,17(24),18,21-heptaen-11-one] |
| < 0.01 | CCO[C@@H]1C[C@H]2COc3ccn4ncc(c4n3)-c3cc(C#N)cc(c3)NCCN2C1=O [Example 23, (12R,14S)-12-ethoxy-11-oxo-16-oxa-7,10,20,21,24-pentaazapentacyclo[15.5.2.1^2,6.0^10,^14.0^20,^23]pentacosa-1(23),2,4,6(25),17(24),18,21-heptaene-4-carbonitrile] |
| < 0.01 | CO[C@@H]1C[C@H]2COc3nc4c(cnn4cc3C)-c3cc(Cl)cc(c3)NCCN2C1=O [Example 24, (12R,14S)-4-chloro-12-methoxy-18-methyl-16-oxa-7,10,20,21,24-pentaazapentacyclo[15.5.2.1^2,6.0^10,^14.0^20,^23]pentacosa-1(23),2(25),3,5,17(24),18,21-heptaen-11-one] |
| < 0.01 | CO[C@H]1C[C@H]2COc3ccn4ncc(c4n3)-c3cc(F)cc(c3)NCCN2C1=O [Example 25, (12S,14S)-4-fluoro-12-methoxy-16-oxa-7,10,20,21,24-pentaazapentacyclo[15.5.2.1^2,6.0^10,^14.0^20,^23]pentacosa-1(23),2(25),3,5,17(24),18,21-heptaen-11-one] |
| < 0.01 | O=C1[C@H](F)C[C@H]2COc3ccn4ncc(c4n3)-c3cc(F)cc(c3)NCCN12 [Example 26, (12R,14S)-4,12-difluoro-16-oxa-7,10,20,21,24-pentaazapentacyclo[15.5.2.1^2,6.0^10,^14.0^20,^23]pentacosa-1(23),2,4,6(25),17(24),18,21-heptaen-11-one] |
| < 0.01 | COc1cc2cc(c1F)NCCN1C(=O)[C@H](OC)C[C@H]1COc1ccn3ncc-2c3n1 [Example 27, (12R,14S)-5-fluoro-4,12-dimethoxy-16-oxa-7,10,20,21,24-pentaazapentacyclo[15.5.2.1^2,6.0^10,^14.0^20,^23]pentacosa-1(23),2,4,6(25),17(24),18,21-heptaen-11-one] |
| < 0.01 | CCOc1cc2cc(c1)-c1cnn3ccc(nc13)OC[C@@H]1C[C@@H](OCC)C(=O)N1CCN2 [Example 28, (12R,14S)-4,12-diethoxy-16-oxa-7,10,20,21,24-pentaazapentacyclo[15.5.2.1^2,6.0^10,^14.0^20,^23]pentacosa-1(23),2(25),3,5,17(24),18,21-heptaen-11-one] |
| < 0.01 | CO[C@@H]1C[C@H]2COc3ccn4ncc(c4n3)-c3cc(F)c(F)c(c3)NCCN2C1=O [Example 29, (12R,14S)-4,5-difluoro-12-methoxy-16-oxa-7,10,20,21,24-pentaazapentacyclo[15.5.2.1^2,6.0^10,^14.0^20,^23]pentacosa-1(23),2(25),3,5,17(24),18,21-heptaen-11-one] |
